The record followed here is patent US7994209B2, “3-phenoxymethylpyrrolidine compounds” (Theravance, Inc., priority 2009, dated 2011).

The target of one assay is hNET (Homo sapiens, UniProt P23975). The experiment in a line: fluorescence-based norepinephrine reuptake inhibition assay (Tsuruda et al. 2010; data indicated by an asterisk). It is filed as cell-based. The conditions noted are these: norepinephrine reuptake inhibition, fluorescence-based assay (values with asterisk); read-out: NET pIC50 (converted). On the set-up: expressed in transfected cells; host or cells: HEK-293.
hNET, sequence (P23975 whole entry): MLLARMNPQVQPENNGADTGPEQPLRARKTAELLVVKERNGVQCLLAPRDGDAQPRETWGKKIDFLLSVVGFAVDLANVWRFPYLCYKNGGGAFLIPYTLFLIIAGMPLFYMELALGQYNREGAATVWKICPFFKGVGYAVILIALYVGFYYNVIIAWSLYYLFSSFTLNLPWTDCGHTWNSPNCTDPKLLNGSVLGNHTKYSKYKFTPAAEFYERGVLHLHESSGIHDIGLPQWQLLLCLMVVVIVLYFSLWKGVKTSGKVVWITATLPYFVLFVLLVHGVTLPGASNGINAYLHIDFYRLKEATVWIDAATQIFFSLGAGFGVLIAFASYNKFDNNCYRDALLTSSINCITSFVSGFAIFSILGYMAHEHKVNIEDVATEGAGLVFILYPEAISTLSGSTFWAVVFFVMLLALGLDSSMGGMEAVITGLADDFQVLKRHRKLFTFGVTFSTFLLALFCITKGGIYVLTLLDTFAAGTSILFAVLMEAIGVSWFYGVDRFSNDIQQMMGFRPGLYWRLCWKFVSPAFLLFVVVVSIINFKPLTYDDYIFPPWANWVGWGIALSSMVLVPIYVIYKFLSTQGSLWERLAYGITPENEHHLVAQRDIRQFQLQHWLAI

For a further assay, the target named is hSERT (Homo sapiens, UniProt P31645). Description: fluorescence-based serotonin reuptake inhibition assay (Tsuruda et al. 2010; data indicated by an asterisk). Also on record: expressed in transfected cells; host or cells: HEK-293. It counts as cell-based. The following applies: fluorescence-based assay (values with asterisk); for IC50: read-out: SERT pIC50 (converted).
hSERT, sequence (P31645 whole entry): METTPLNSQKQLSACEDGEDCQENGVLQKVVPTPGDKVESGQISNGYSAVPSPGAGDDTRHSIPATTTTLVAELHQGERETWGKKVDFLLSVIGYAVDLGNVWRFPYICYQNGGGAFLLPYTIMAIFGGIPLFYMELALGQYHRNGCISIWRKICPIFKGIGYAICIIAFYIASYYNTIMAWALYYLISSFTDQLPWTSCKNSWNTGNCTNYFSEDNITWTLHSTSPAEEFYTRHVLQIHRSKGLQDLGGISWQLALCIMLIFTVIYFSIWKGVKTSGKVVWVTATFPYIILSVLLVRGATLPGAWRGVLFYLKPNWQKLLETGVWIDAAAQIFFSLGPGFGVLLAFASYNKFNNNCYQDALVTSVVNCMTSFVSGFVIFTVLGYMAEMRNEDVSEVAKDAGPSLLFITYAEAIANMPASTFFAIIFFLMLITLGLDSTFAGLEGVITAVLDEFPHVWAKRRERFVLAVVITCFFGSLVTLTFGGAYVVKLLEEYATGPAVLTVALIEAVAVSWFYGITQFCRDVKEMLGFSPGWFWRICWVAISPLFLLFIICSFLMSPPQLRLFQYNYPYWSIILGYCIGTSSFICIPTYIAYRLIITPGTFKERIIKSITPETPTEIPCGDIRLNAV

Marks after values point to notes of the source that are not given here.

For the compound `CC(C)[C@H](Oc1c(F)cc(Cl)cc1Cl)[C@@H]1CCNC1` [Example 6-32, (R)-3-[(S)-1-(2,4-Dichloro-6-fluorophenoxy)-2-methylpropyl]pyrrolidine], the IC50 is not above 316 nM on hNET and not above 100 nM on hSERT.
Take `CCC[C@H](Oc1cccc(Cl)c1F)[C@H]1CCNC1` [Example 4-48, (S)-3-[(S)-1-(3-Chloro-2-fluorophenoxy)butyl]pyrrolidine]: the IC50 was not above 10 nM at hNET and not above 100 nM on hSERT.
With `CC(C)[C@H](Oc1cc(F)cc(Cl)c1)[C@H]1CCNC1` [Example 6-59, (S)-3-[(S)-1-(3-Chloro-5-fluorophenoxy)-2-methylpropyl]pyrrolidine], the IC50 on hNET is not above 10 nM; at hSERT it was not above 100 nM.
For `CC(C)[C@@H](Oc1cccc2ccccc12)[C@@H]1CCNC1` [Example 14-7, (R)-3-[(R)-2-Methyl-1-(naphthalen-1-yloxy)propyl]pyrrolidine] the same measures were not above 100 nM and not above 10 nM.
For `CC[C@@H](Oc1ccccc1Cl)[C@H]1CCNC1` [Example 2-24, (S)-3-[(R)-1-(2-Chlorophenoxy)propyl]pyrrolidine], the IC50 at hNET and on hSERT was not above 100 nM each time.
Regarding `CCC(CC)[C@@H](Oc1cccc(Cl)c1Cl)[C@H]1CCNC1` [Example 11, (S)-3-[(R)-1-(2,3-Dichlorophenoxy)-2-ethylbutyl]pyrrolidine], the IC50 on hNET and at hSERT was not above 10 nM in each case.
Regarding `Clc1cccc(OC(C2CCCC2)C2CCNC2)c1Cl` (stereo not shown) [Example 18-1, 3-[Cyclopentyl-(2,3-dichlorophenoxy)methyl]pyrrolidine], the IC50 on hNET and on hSERT was not above 10 nM in each case.
Turning to `CCC[C@@H](Oc1c(F)ccc(OC)c1Cl)[C@H]1CCNC1` [Example 4-42, (S)-3-[(R)-1-(2-Chloro-6-fluoro-3-methoxyphenoxy)butyl]pyrrolidine], the IC50 at hNET and on hSERT was not above 10 nM in each case.
With `CC[C@H](Oc1c(F)cc(Cl)cc1Cl)[C@H]1CCNC1` [Example 2-35, (S)-3-[(S)-1-(2,4-Dichloro-6-fluorophenoxy)propyl]pyrrolidine], the IC50 at hNET and at hSERT was not above 10 nM each time.
For the compound `Cc1cc(Cl)cc(Cl)c1O[C@@H](C(C)C)[C@H]1CCNC1` [Example 6-33, (S)-3-[(S)-1-(2,4-Dichloro-6-methylphenoxy)-2-methylpropyl]pyrrolidine], the IC50 on hNET and on hSERT was not above 10 nM throughout.
For the compound `CC(C)[C@@H](Oc1cc(F)cc(Cl)c1)[C@@H]1CCNC1` [Example 6-61, (R)-3-[(R)-1-(3-Chloro-5-fluorophenoxy)-2-methylpropyl]pyrrolidine], the IC50 at hNET and on hSERT was not above 100 nM throughout.
In the case of `CC(C)[C@H](Oc1cc(Cl)cc(Cl)c1)[C@@H]1CCNC1` [Example 6-69, (R)-3-[(S)-1-(3,5-Dichlorophenoxy)-2-methylpropyl]pyrrolidine], the IC50 on hNET and on hSERT was not above 100 nM in each case.
For the compound `CCC[C@H](Oc1ccc(Cl)c(Cl)c1F)[C@H]1CCNC1` [Example 4-52, (S)-3-[(S)-1-(3,4-Dichloro-2-fluorophenoxy)butyl]pyrrolidine], the IC50 at hNET and on hSERT was not above 10 nM each time.
With `CC(C)[C@H](Oc1c(F)cc(Cl)cc1F)[C@H]1CCNC1` [Example 6-5, (S)-3-[(S)-1-(4-Chloro-2,6-difluorophenoxy)-2-methylpropyl]pyrrolidine], the IC50 at hNET and on hSERT was not above 10 nM each time.
As for `CCC[C@H](Oc1c(F)cc(Cl)cc1F)[C@H]1CCNC1` [Example 4-53, (S)-3-[(S)-1-(4-Chloro-2,6-difluorophenoxy)butyl]pyrrolidine], the IC50 at hNET and on hSERT was not above 10 nM in each case.
On to `Cc1cc(Cl)ccc1OC(C1CCCC1)C1CCNC1` (stereo not shown) [Example 18-7, 3-[(4-Chloro-2-methylphenoxy)cyclopentylmethyl]pyrrolidine], for which the IC50 was not above 100 nM at hNET and not above 10 nM at hSERT.
Take `CC(C)C[C@H](Oc1ccc(Cl)c(Cl)c1)[C@H]1CCNC1` [Example 10-74, (S)-3-[(S)-1-(3,4-Dichlorophenoxy)-3-methylbutyl]pyrrolidine]: the IC50 at hNET and on hSERT was not above 10 nM each time.
Take `CC(C)[C@@H](Oc1cc(Cl)ccc1Cl)[C@H]1CCNC1` [Example 6-26, (S)-3-[(R)-1-(2,5-Dichlorophenoxy)-2-methylpropyl]pyrrolidine]: the IC50 at hNET and at hSERT was not above 100 nM throughout.
Take `CC(C)C[C@H](Oc1cccc2ccccc12)[C@H]1CCNC1` [Example 14-8, (S)-3-[(S)-3-Methyl-1-(naphthalen-1-yloxy)butyl]pyrrolidine]: the IC50 on hNET and on hSERT was not above 10 nM each time.
For `COc1cc(Cl)ccc1O[C@H](C(C)C)[C@@H]1CCNC1` [Example 6-48, (R)-3-[(R)-1-(4-Chloro-2-methoxyphenoxy)-2-methylpropyl]pyrrolidine], the IC50 on hNET is not above 100 nM; at hSERT, not above 10 nM.
Take `CCC[C@H](Oc1cccc(F)c1F)[C@H]1CCNC1` [Example 4-45, (S)-3-[(S)-1-(2,3-Difluorophenoxy)butyl]pyrrolidine]: the IC50 on hNET was not above 10 nM; at hSERT it was not above 100 nM.
In the case of `Clc1ccc(OC(C2CCCC2)C2CCNC2)c(Cl)c1` (single isomer, unassigned) [Example 18-5, 3-[Cyclopentyl-(2,4-dichlorophenoxy)methyl]pyrrolidine], the IC50 at hNET was not above 10 nM. For the same compound, the “SERT pIC50” value at hSERT was “≧8.0*”.
For `CC(C)C[C@@H](Oc1cc(F)cc(Cl)c1)[C@H]1CCNC1` [Example 10-83, (S)-3-[(R)-1-(3-Chloro-5-fluorophenoxy)-3-methylbutyl]pyrrolidine], the IC50 on hNET was not above 10 nM; at hSERT, not above 100 nM.
With `CC(C)C[C@@H](Oc1ccc(Cl)c(F)c1)[C@H]1CCNC1` [Example 10-71, (S)-3-[(R)-1-(4-Chloro-3-fluorophenoxy)-3-methylbutyl]pyrrolidine], the IC50 on hNET and on hSERT was not above 10 nM each time.
Turning to `CC(C)[C@@H](Oc1c(F)cc(Cl)cc1Cl)[C@H]1CCNC1` [Example 6-31, (S)-3-[(R)-1-(2,4-Dichloro-6-fluorophenoxy)-2-methylpropyl]pyrrolidine], the IC50 on hNET is not above 100 nM; at hSERT, not above 10 nM.
Turning to `CC[C@H](Oc1cccc(Cl)c1C)[C@H]1CCNC1` [Example 2-64, (S)-3-[(S)-1-(3-Chloro-2-methylphenoxy)propyl]pyrrolidine], the IC50 on hNET and on hSERT was not above 10 nM each time.
For `CC(C)[C@H](Oc1ccc(Cl)c(Cl)c1)[C@@H]1CCNC1` [Example 6-65, (R)-3-[(S)-1-(3,4-Dichlorophenoxy)-2-methylpropyl]pyrrolidine], the IC50 on hNET was not above 100 nM; at hSERT, not above 10 nM.
As for `CC(C)C[C@@H](Oc1cccc(Cl)c1C(F)(F)F)[C@H]1CCNC1` [Example 10-34, (S)-3-[(R)-1-(3-Chloro-2-trifluoromethylphenoxy)-3-methylbutyl]pyrrolidine], the IC50 on hNET is not above 100 nM; at hSERT, not above 10 nM.
With `CC[C@@H](Oc1ccc(Cl)c(F)c1)[C@H]1CCNC1` [Example 2-6, (S)-3-[(R)-1-(4-Chloro-3-fluorophenoxy)propyl]pyrrolidine], the IC50 at hNET was not above 100 nM; at hSERT it was not above 10 nM.
The corresponding values for `CC(C)C[C@H](Oc1ccc(Cl)c(F)c1)[C@H]1CCNC1` [Example 10-72, (S)-3-[(S)-1-(4-Chloro-3-fluorophenoxy)-3-methylbutyl]pyrrolidine] are not above 10 nM and not above 10 nM.
The corresponding values for `CC(C)C[C@@H](Oc1ccc(Cl)cc1F)[C@H]1CCNC1` [Example 10-40, (S)-3-[(R)-1-(4-Chloro-2-fluorophenoxy)-3-methylbutyl]pyrrolidine] are not above 10 nM and not above 100 nM.
For the compound `CC(C)[C@@H](Oc1c(F)cc(Cl)cc1F)[C@@H]1CCNC1` [Example 6-6, (R)-3-[(R)-1-(4-Chloro-2,6-difluorophenoxy)-2-methylpropyl]pyrrolidine], the IC50 on hNET and at hSERT was not above 100 nM in each case.
Turning to `CC(C)C[C@@H](Oc1cccc2ccccc12)[C@H]1CCNC1` [Example 14-9, (S)-3-[(R)-3-Methyl-1-(naphthalen-1-yloxy)butyl]pyrrolidine], the IC50 at hNET and on hSERT was not above 10 nM each time.
As to `CCC[C@H](Oc1c(C)cc(Cl)cc1Cl)[C@H]1CCNC1` [Example 4-41, (S)-3-[(S)-1-(2,4-Dichloro-6-methylphenoxy)butyl]pyrrolidine], the IC50 at hNET and on hSERT was not above 10 nM in each case.
As to `CC(C)C[C@H](Oc1cccc(C(F)(F)F)c1F)[C@H]1CCNC1` [Example 10-21, (S)-3-[(S)-1-(2-Fluoro-3-trifluoromethylphenoxy)-3-methylbutyl]pyrrolidine], the IC50 on hNET and on hSERT was not above 10 nM throughout.
With `CC(C)[C@@H](Oc1ccc(Cl)c(Cl)c1F)[C@@H]1CCNC1` [Example 6-9, (R)-3-[(R)-1-(3,4-Dichloro-2-fluorophenoxy)-2-methylpropyl]pyrrolidine], the IC50 on hNET is not above 100 nM; at hSERT, not above 10 nM.
Regarding `CC(C)C[C@H](Oc1cc(Cl)ccc1Cl)[C@H]1CCNC1` [Example 10-51, (S)-3-[(S)-1-(2,5-Dichlorophenoxy)-3-methylbutyl]pyrrolidine], the IC50 on hNET and on hSERT was not above 10 nM throughout.
For `CC(C)[C@H](Oc1ccc(C(F)(F)F)cc1Cl)[C@H]1CCNC1` [Example 6-25, (S)-3-[(S)-1-(2-Chloro-4-trifluoromethylphenoxy)-2-methylpropyl]pyrrolidine], the IC50 on hNET was not above 100 nM; on hSERT, not above 10 nM.
